Reference: PubChem BioAssay AID334 (DTP/NCI, 2004)
Several values for one entry are separate records, joined by “and”; a condition that tells them apart may be missing. Equal entries are not always repeated. Inconclusive results and toxic doses are left out.

Tested on: CD2F1 mice, intracerebral P388 leukemia, median survival T/C%
Assay: NCI In Vivo Anticancer Drug Screen. Data for tumor model P388 Leukemia (intracerebral) in CD2F1 (CDF1) mice
Details: endpoint: median survival time, higher = longer survival
Experimental: The antitumor activity of compounds was measured in mice bearing transplantable tumors. Survival or tumor size were measured and the results are expressed as the measurement made in the treated group (T) divided by the measurement made in the vehicle treated control group (C). The tumor model used in this assay is P388 Leukemia (intracerebral) in CD2F1 (CDF1) mice

[1] = dose: 12.5 mg/kg/injection, schedule: Q01DX009 (ip), vehicle: saline
[2] = dose: 25.0 mg/kg/injection, schedule: Q01DX009 (ip), vehicle: saline
[3] = dose: 50.0 mg/kg/injection, schedule: Q01DX009 (ip), vehicle: saline

In the case of CSCS(=O)C[C@H](CO)NC(=O)/C=C/c1c(C)[nH]c(=O)[nH]c1=O (some centres not stated), the T/C (dose: 0.06 mg/kg/injection, schedule: Q01DX005 (ip), vehicle: Klucel (hydroxypropylcellulose) (HPC)) is reported as 103 % of control and 104 % of control, the T/C (dose: 0.12 mg/kg/injection, schedule: Q01DX005 (ip), vehicle: Klucel (hydroxypropylcellulose) (HPC)) is reported as 101 % of control and 105 % of control and the T/C (dose: 0.25 mg/kg/injection, schedule: Q01DX005 (ip), vehicle: Klucel (hydroxypropylcellulose) (HPC)) is reported as 107 % of control and 110 % of control. For the same molecule, the T/C (dose: 0.5 mg/kg/injection, schedule: Q01DX005 (ip), vehicle: Klucel (hydroxypropylcellulose) (HPC)) was 106 % of control and 108 % of control.
CCCCCCCCCCCCCCCCCC(=O)NC(Cc1ccc(N(CCCl)CCCl)cc1)C(=O)O (configuration not stated) was tested, and the T/C (dose: 1.88 mg/kg/injection, schedule: Q03HX008 (ip), vehicle: saline) was 110 % of control and the T/C (dose: 3.75 mg/kg/injection, schedule: Q03HX008 (ip), vehicle: saline) was 115 % of control.
With CC1(C)N=C(N)N=C(N)N1c1ccc(OCCOc2ccc(S(=O)(=O)F)cc2)c(Cl)c1 the T/C (dose: 12.5 mg/kg/injection, schedule: Q04DX003 (ip), vehicle: saline) was 116 % of control, the T/C (dose: 25.0 mg/kg/injection, schedule: Q04DX003 (ip), vehicle: saline) was 100 % of control and the T/C (dose: 50.0 mg/kg/injection, schedule: Q04DX003 (ip), vehicle: saline) was 94 % of control.
CC[C@H]1CN2CCc3cc(OC)c(OC)cc3[C@@H]2C[C@@H]1C[C@H]1NCCc2cc(OC)c(OC)cc21 was tested, and the T/C (dose: 2.0 mg/kg/injection, schedule: Q01DX005 (ip), vehicle: Klucel (hydroxypropylcellulose) (HPC)) was 113 % of control and 99 % of control, the T/C (dose: 4.0 mg/kg/injection, schedule: Q01DX005 (ip), vehicle: Klucel (hydroxypropylcellulose) (HPC)) was 94 % of control and 100 % of control and the T/C (dose: 8.0 mg/kg/injection, schedule: Q01DX005 (ip), vehicle: Klucel (hydroxypropylcellulose) (HPC)) was 119 % of control and 100 % of control.
For CCCCCC(=O)NC(Cc1ccc(N(CCCl)CCCl)cc1)C(=O)O (configuration not stated), the T/C (dose: 1.3 mg/kg/injection, schedule: Q03HX008 (ip), vehicle: saline) was 94 % of control, the T/C (dose: 2.6 mg/kg/injection, schedule: Q03HX008 (ip), vehicle: saline) was 105 % of control and the T/C (dose: 5.3 mg/kg/injection, schedule: Q03HX008 (ip), vehicle: saline) was 105 % of control. The T/C (dose: 10.6 mg/kg/injection, schedule: Q03HX008 (ip), vehicle: saline) was 100 % of control and the T/C (dose: 21.2 mg/kg/injection, schedule: Q03HX008 (ip), vehicle: saline) was 115 % of control.
O=C1N(Cl)C(=O)C(c2ccc(Cl)cc2)(c2ccc(Cl)cc2)N1Cl was tested, and the T/C (dose: 50.0 mg/kg/injection, schedule: Q01DX009 (ip), vehicle: saline with Tween-80) was 94 % of control, the T/C (dose: 100.0 mg/kg/injection, schedule: Q01DX009 (ip), vehicle: saline with Tween-80) was 105 % of control and the T/C (dose: 200.0 mg/kg/injection, schedule: Q01DX009 (ip), vehicle: saline with Tween-80) was 94 % of control.
With [N-]=[N+]=CC(=O)CCC(N)C(=O)O (configuration not stated) the T/C (dose: 0.05 mg/kg/injection, schedule: Q01DX009 (ip), vehicle: saline) was 107 % of control, the T/C (dose: 0.2 mg/kg/injection, schedule: Q01DX009 (ip), vehicle: saline) was 105 % of control and the T/C (dose: 0.4 mg/kg/injection, schedule: Q01DX009 (ip), vehicle: saline) was 103 % of control.
For O=C1C=C(N2CC2)C(=O)C=C1N1CC1, the T/C (dose: 0.12 mg/kg/injection, schedule: Q01DX009 (ip), vehicle: saline) was 104 % of control and 105 % of control and 106 % of control, the T/C (dose: 0.25 mg/kg/injection, schedule: Q01DX009 (ip), vehicle: saline) was 100 % of control and 101 % of control and 105 % of control and the T/C (dose: 0.5 mg/kg/injection, schedule: Q01DX009 (ip), vehicle: saline) was 105 % of control and 107 % of control and 111 % of control. For the same molecule, the T/C (dose: 1.0 mg/kg/injection, schedule: Q01DX009 (ip), vehicle: saline) was 92 % of control and 93 % of control and 100 % of control.
CC1(C)N=C(N)N=C(N)N1c1ccc(CCCCc2cccc(S(=O)(=O)F)c2)c(Cl)c1 was tested, and the T/C (dose: 8.0 mg/kg/injection, schedule: Q01DX009 (ip), vehicle: saline) was 94 % of control, the T/C (dose: 12.0 mg/kg/injection, schedule: Q01DX009 (ip), vehicle: saline) was 116 % of control and the T/C (dose: 18.0 mg/kg/injection, schedule: Q01DX009 (ip), vehicle: saline) was 105 % of control. The T/C (dose: 27.0 mg/kg/injection, schedule: Q01DX009 (ip), vehicle: saline) was 88 % of control.
In the case of COc1cc(NCc2ccc3nc(N)nc(N)c3c2C)cc(OC)c1OC (tested in a mixture with another compound), the T/C (dose: 7.5 mg/kg/injection, schedule: Q01DX009 (ip), vehicle: water) is reported as 100 % of control, the T/C (dose: 15.0 mg/kg/injection, schedule: Q01DX009 (ip), vehicle: water) is reported as 115 % of control and the T/C (dose: 30.0 mg/kg/injection, schedule: Q01DX009 (ip), vehicle: water) is reported as 117 % of control.
For COCC(O)Cn1ccnc1[N+](=O)[O-] (configuration not stated), the T/C (dose: 32.0 mg/kg/injection, schedule: Q01DX009 (ip), vehicle: Klucel (hydroxypropylcellulose) (HPC)) was 113 % of control, the T/C (dose: 64.0 mg/kg/injection, schedule: Q01DX009 (ip), vehicle: Klucel (hydroxypropylcellulose) (HPC)) was 102 % of control and the T/C (dose: 128.0 mg/kg/injection, schedule: Q01DX009 (ip), vehicle: Klucel (hydroxypropylcellulose) (HPC)) was 96 % of control. The T/C (dose: 256.0 mg/kg/injection, schedule: Q01DX009 (ip), vehicle: Klucel (hydroxypropylcellulose) (HPC)) was 102 % of control and the T/C (dose: 512.0 mg/kg/injection, schedule: Q01DX009 (ip), vehicle: Klucel (hydroxypropylcellulose) (HPC)) was 102 % of control.
With Nc1ncn(C2OC(CO)C(O)C2O)c(=O)n1 (configuration not stated) the T/C [1] was 219 % of control, the T/C [2] was 230 % of control and the T/C [3] was 290 % of control. The T/C (dose: 100.0 mg/kg/injection, schedule: Q01DX009 (ip), vehicle: saline) was 303 % of control and the T/C (dose: 200.0 mg/kg/injection, schedule: Q01DX009 (ip), vehicle: saline) was 303 % of control.
In the case of COS(C)(=O)=O, the T/C (dose: 32.0 mg/kg/injection, schedule: Q01DX005 (ip), vehicle: saline) is reported as 107 % of control and 108 % of control, the T/C (dose: 64.0 mg/kg/injection, schedule: Q01DX005 (ip), vehicle: saline) is reported as 97 % of control and 106 % of control and the T/C (dose: 128.0 mg/kg/injection, schedule: Q01DX005 (ip), vehicle: saline) is reported as 104 % of control and 105 % of control.
In the case of Nc1nc2c(c(=O)[nH]1)N(C=O)C(CNc1ccc(C(=O)N[C@@H](CCC(=O)O)C(=O)O)cc1)CN2 (some centres not stated), the T/C (dose: 128.0 mg/kg/injection, schedule: Q01DX005 (ip), vehicle: suspension in saline) is reported as 98 % of control, the T/C (dose: 256.0 mg/kg/injection, schedule: Q01DX005 (ip), vehicle: suspension in saline) is reported as 97 % of control and the T/C (dose: 512.0 mg/kg/injection, schedule: Q01DX005 (ip), vehicle: suspension in saline) is reported as 100 % of control.
For CC[n+]1c(-c2ccccc2)c2cc(N)ccc2c2ccc(N)cc21, the T/C (dose: 6.0 mg/kg/injection, schedule: Q01DX005 (ip), vehicle: saline) was 102 % of control and the T/C (dose: 12.0 mg/kg/injection, schedule: Q01DX005 (ip), vehicle: saline) was 99 % of control and 106 % of control.
With CCN(CC)c1ccc2cc3ccc(=[N+](CC)CC)cc-3oc2c1 the T/C (dose: 4.0 mg/kg/injection, schedule: Q01DX005 (ip), vehicle: suspension in saline) was 102 % of control and the T/C (dose: 8.0 mg/kg/injection, schedule: Q01DX005 (ip), vehicle: suspension in saline) was 103 % of control.
In the case of CCCCCCCC/C=C/CCCCCCCC(=O)Nc1ccn(C2OC(CO)C(O)C2O)c(=O)n1 (configuration not stated), the T/C [1] is reported as 155 % of control, the T/C [2] is reported as 197 % of control and the T/C [3] is reported as 262 % of control.
